PubChem BioAssay (NCI)
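96-well plates; 48 h exposure; 5 concentrations. Endpoints by linear interpolation between flanking doses. Not reached: highest tested concentration assigned. Abbreviation: GI50, concentration required for 50% inhibition of growth. The concentration for full growth arrest is given as TGI.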

Columns and labels:
Assay in all cases: inhibition of tumour cell growth, NCI panel, 48 h
EKVX NSCLC = test system: EKVX NSCLC
SK-MEL-5 melanoma = test system: SK-MEL-5 melanoma
SF-268 CNS = test system: SF-268 CNS
CAKI-1 renal = test system: CAKI-1 renal
ACHN renal = test system: ACHN renal
OVCAR-8 ovarian = test system: OVCAR-8 ovarian
MDA-MB-231 breast = test system: MDA-MB-231 breast
SW-620 colon = test system: SW-620 colon
A549 NSCLC = test system: A549 NSCLC
SF-539 CNS = test system: SF-539 CNS

Row | SMILES | GI50 (EKVX NSCLC) [µM] | TGI (EKVX NSCLC) [µM] | GI50 (SK-MEL-5 melanoma) [µM] | TGI (SK-MEL-5 melanoma) [µM] | GI50 (SF-268 CNS) [µM] | TGI (SF-268 CNS) [µM] | GI50 (CAKI-1 renal) [µM] | TGI (CAKI-1 renal) [µM] | GI50 (ACHN renal) [µM] | TGI (ACHN renal) [µM] | GI50 (OVCAR-8 ovarian) [µM] | TGI (OVCAR-8 ovarian) [µM] | GI50 (MDA-MB-231 breast) [µM] | TGI (MDA-MB-231 breast) [µM] | GI50 (SW-620 colon) [µM] | TGI (SW-620 colon) [µM] | GI50 (A549 NSCLC) [µM] | TGI (A549 NSCLC) [µM] | GI50 (SF-539 CNS) [µM] | TGI (SF-539 CNS) [µM]
1 | COc1cc2ncn(-c3cc(OCCc4ccccc4)c(C(N)=O)s3)c2cc1OC | > 25 | > 25 | 11.3 | > 25 | > 25 | > 25 | > 25 | > 25 | > 25 | > 25 | > 25 | > 25 | 24.6 | > 25 | > 25 | > 25 | > 25 | > 25 | > 25 | > 25
2 | [Au+].[Au+].[Au+].[c-]1nccn1Cc1ccccc1.[c-]1nccn1Cc1ccccc1.[c-]1nccn1Cc1ccccc1 | 11.6 | 38.8 | 2.93 | 6.15 | 3.35 | 15.3 | 11.2 | 25.9 | 14.3 | 28.6 | 5.06 | > 42.6 | 22 | 70.5 | 7.78 | > 19.7 | 24.7 | 65.4 | 2.96 | 9.15
3 | O=C(Nc1ccc(CO)cc1)c1coc2ccccc2c1=O | > 100 | > 100 | > 100 | > 100 | > 100 | > 100 | > 100 | > 100 | > 100 | > 100 | > 100 | > 100 | > 100 | > 100 | > 100 | > 100 | > 100 | > 100 | > 100 | > 100
4 | O=C(Nc1ccc(-c2ccccc2)cc1)C1CCN(S(=O)(=O)c2ccccc2Cl)CC1 | 73.5 | > 100 | 69.3 | > 100 | 39 | > 100 | 53 | > 100 | 21.9 | 57 | 22.7 | 57.1 | 18.2 | 47.3 | 82.3 | > 100 | 29.5 | > 100 | 12 | 37.3
5 | COc1ccc(OC)c2c(/C=C/c3ccc(N(C)C)cc3)ccnc12 | – | > 10 | – | > 10 | – | > 10 | – | > 10 | – | > 10 | – | > 10 | – | > 10 | – | > 10 | – | > 10 | – | 6.07
6 | COc1ccc(-c2c[nH]c(=S)n2-c2ccc(OC)cc2)cc1 | > 50 | > 50 | > 50 | > 50 | > 50 | > 50 | > 50 | > 50 | > 50 | > 50 | > 50 | > 50 | > 50 | > 50 | > 50 | > 50 | > 50 | > 50 | > 50 | > 50
7 | CCOC(=O)c1c[nH]c2oc(/C=N/N3CC(CN4CCOCC4)OC3=O)cc2c1=O (stereo not given) | – | > 100 | – | > 100 | – | > 100 | – | > 100 | – | > 100 | – | > 100 | – | > 100 | – | > 100 | – | > 100 | – | > 100
8 | COc1ccc(Nc2c3ccccc3nc3occ(Cl)c23)cc1 | 1.76 | 6.89 | < 0.01 | 0.521 | 0.0368 | 21.5 | < 0.01 | 16.3 | 1.44 | > 100 | 0.0476 | – | < 0.01 | 0.0648 | < 0.01 | 18.4 | < 0.0112 | 3.95 | < 0.0167 | 1.39
9 | Cc1cc2c(cc1Cl)SC(=Nc1ccc(Cl)cc1)N(S(=O)(=O)c1ccccc1)S2(=O)=O | 15.1 | 29.3 | 6.82 | 19.2 | 13.8 | 34.8 | 5.37 | 23.4 | 1.95 | 10.5 | 12.4 | 30.8 | 2.79 | 16 | 5.63 | 17.4 | 13.7 | 32.2 | 1.03 | 3.53
10 | Oc1cn(-c2ccc(Cl)cc2)nc1-c1n[nH]c(=S)n1C1CCCCC1 | 15.5 | > 100 | 0.25 | 12.3 | 13.7 | > 100 | 0.389 | > 100 | – | – | 0.46 | 16.8 | 2.22 | > 90.7 | 0.475 | > 100 | 2.03 | > 48.8 | 0.312 | 1.11
11 | COc1ccc2[nH]c3c4c(ccc3c2c1)C(=O)C=CC4=O | – | 29.9 | – | 40.1 | – | 36.1 | – | 14.4 | – | 15 | – | 12.4 | – | 35.4 | – | 6.63 | – | 62.8 | – | 32.2
12 | O=C(Nc1ccc(-n2cc(-c3ccncc3)c(-c3ccc(Cl)c(O)c3)n2)cc1)Nc1ccc(Cl)c(C(F)(F)F)c1 | 3.05 | 14.6 | 1.53 | 2.95 | 1.65 | 3.87 | 3.01 | 15.3 | 1.78 | 4.94 | 1.77 | 4.8 | 1.66 | 3.31 | 2.48 | 5.04 | 2.21 | 5.96 | 1.31 | 3.48
13 | COCCOc1cnc2ccn([C@H](C)c3nnc4c(F)cc(-c5cnn(C)c5)cn34)c(=O)c2c1 | > 100 | > 100 | > 100 | > 100 | > 100 | > 100 | – | – | > 100 | > 100 | > 100 | > 100 | > 100 | > 100 | > 100 | > 100 | > 100 | > 100 | > 100 | > 100
14 | COc1cc2c(cc1O)C1Cc3ccc(OC)c(O)c3C(C2)N1C (stereo not given) | – | > 100 | – | > 100 | – | > 100 | – | > 100 | – | > 100 | – | > 100 | – | > 100 | – | > 100 | – | > 100 | – | > 100
